According to patent publication US20030069200A1, “Use of glucosylceramide synthesis inhibitors in brain cancertherapy” (priority 2000, published 2003):

Experiments:
neuroblastoma cells = settings: in vitro, cited from earlier work
CT-2A cells = assay: Growth of cultured CT-2A brain tumour cells (Coulter counter cell counts); format: cell-based; settings: NB-DNJ 200 μM
Experimental: (§1) Approximately 0.5×10^4 cells for CT-2A and 1×10^4 cells for EPEN were seeded in wells of a 24 well plate and cultured for 24 hours in DMEM supplemented with 10% FBS. The exact cellular origin of the CT-2A and EPEN tumours is not known, but Dr. Allan Yates, Chief of Neuropathology at Ohio State University classified the tumours as poorly differentiated anaplastic astrocytomas (see Seyfried et al Mol. Chem. Neuropathol. 17: 147-167, 1992).
(§2) Cells were cultured for a further 7 days in the same medium for control cells or in the presence of NB-DNJ (200 μM) for treated cells. Cells were counted on days 2, 4, 6 and 8 using a Coulter counter and the results are shown in FIGS. 2A and 2B where values are expressed as means±SEM (N=3).

EPEN tumour = assay: Subcutaneous EPEN tumour growth in C57BL/6 mice; format: in vivo, mouse; settings: NB-DNJ 2400 mg/kg body wt/day in diet, ten days
Experimental: (§3) CT-2A and EPEN tumours were grown subcutaneously in the flanks of six-week old syngeneic C57BL/6 mice. The treated mice were maintained on a powdered mouse chow diet (Prolab, Agway) that contained NB-DNJ (2400 mg/kg body weight/day). The control mice received only the powdered mouse chow. Tumours were enzymatically dissociated as described in Ecsedy et al, J. Lipid Res., 39: 2218-2227, 1998 and approximately 5×10^6 cells from each tumour were inoculated subcutaneously into the flanks of the host mice. For the CT-2A-bearing mice, drug treatment was started six days post-tumour cell inoculation and was continued for a total of nine days. For the EPEN-bearing mice, drug treatment was started eleven days post-tumour inoculation and was continued for a total of ten days. This was done because the EPEN tumour grows more slowly than the CT-2A tumour (Cotterchio et al. 1993. Mol. Chem. Neuropathol. 20:163-172). The method of Looney was used to determine tumour growth rates (volume increase/day) as previously described (Cotterchio et al. 1993. Mol. Chem. Neuropathol. 20:163-172). The results are shown in FIGS. 3A and 3B where values are expressed as means±SEM except for the control EPEN, which is the mean of two independent samples.

EPEN cells = assay: Growth of cultured EPEN brain tumour cells (Coulter counter cell counts); format: cell-based; settings: NB-DNJ 200 μM
Experimental: as §1, §2

CT-2A tumour [1] = assay: Ganglioside neuraminic acid content of the CT-2A mouse brain tumour (Table 1); format: in vivo; settings: treated mice, mean of N=2
Experimental: (§4) CT-2A tumour tissue was minced and tissue pieces (about 1 mm^3) were implanted into the cerebral cortex of C57BL/6J mice using a trocar as described previously (Seyfried et al. 1987. Cancer Res. 47:3538-3542). The NB-DNJ diet as in Example 2. Control mice received only the powdered mouse chow. Tumours were excised from surrounding brain tissue, frozen, and lyophilized to remove water. Gangliosides were isolated and purified and content expressed as μg sialic acid/100 mg dry weight, as determined using the resorcinol reagent, as previously described (Seyfried et al. 1978. J. Neurochem. 31:21-27).
In addition, NB-DNJ reduced ganglioside content in the CT-2A mouse brain tumour grown subcutaneously (See FIG. 4B and Table 1 below).

CT-2A tumour [2] = assay: Subcutaneous CT-2A tumour growth in C57BL/6 mice; format: in vivo, mouse; settings: NB-DNJ 2400 mg/kg body wt/day in diet, nine days
Experimental: as §3

CT-2A tumour [3] = assay: Intra-cranial CT-2A tumour growth and ganglioside content in C57BL/6J mice; format: in vivo, mouse
Experimental: as §4

[4] = intra-cranial CT-2A tumours, NB-DNJ diet

Row | SMILES | ganglioside shedding by neuroblastoma tumours (neuroblastoma cells; Li et al 1996) | neurite outgrowth by neuroblastoma cells (neuroblastoma cells; Uemura et al 1990) | percentage of dead cells vs control (trypan blue exclusion) (CT-2A cells; CT-2A culture) | growth inhibition of cultured CT-2A tumour cells (CT-2A cells; after 8 days) | reduction of tumour growth rate compared to untreated controls (EPEN tumour) [%] | percentage of dead cells vs control (trypan blue exclusion) (EPEN cells; EPEN culture) | growth inhibition of cultured EPEN tumour cells (EPEN cells; after 8 days) | Ganglioside Neuraminic Acid Content, NeuAc (CT-2A tumour [1]) [μg/100 mg dry wt] | Ganglioside Neuraminic Acid Content, NeuGc (CT-2A tumour [1]) [μg/100 mg dry wt] | Ganglioside Neuraminic Acid Content, Total (CT-2A tumour [1]) [μg/100 mg dry wt] | reduction of tumour growth rate compared to untreated controls (CT-2A tumour [2]) [%] | intra-cranial growth of the CT-2A tumour (CT-2A tumour [3]; NB-DNJ dietary treatment) | blood brain barrier penetration (CT-2A tumour [3]; inferred from the effect on intra-cranial tumours, dietary treatment) | reduction in ganglioside concentration (CT-2A tumour [3]; [4]) [%] | reduction in tumour dry weight (CT-2A tumour [3]; [4]) [%]
1 | CCCCCCCCCC(=O)N[C@H](CN1CCOCC1)[C@H](O)c1ccccc1 [D-PDMP, D-threo-1-phenyl-2-decanoylamino-3-morpholino-1-propanol] | reduces ganglioside shedding | inhibit neurite outgrowth |  |  |  |  |  |  |  |  |  |  |  |  | 
2 | CCCCN1C[C@H](O)[C@@H](O)[C@H](O)[C@H]1CO [NB-DNJ, N-butyldeoxynojirimycin] |  |  | did not differ significantly | about 50% | 76 | did not differ significantly | about 50% | 21.8 | 5.6 | 27.1 | 68 | significantly reduced | can penetrate the blood brain barrier | 53 | 55
